Laboratory results published in patent US9617256B2 (priority 2007, dated 2017).
Values after ≈ are worked out from the molar mass of the structure shown. Where two headings read alike, the source gives them in different places.

Assays:
[1] = test system: AABA1060 (clinical isolate of Acinetobacter baumannii); assay: MIC broth microdilution, AABA1060; format: cell-based; conditions: Acinetobacter baumannii, read-out: MIC AABA1060
Procedure: (§1) Bacterial isolates were cultivated from −70° C. frozen stocks by overnight passages at 35° C. in ambient air on Mueller-Hinton agar (Beckton Dickinson, Franklin Lakes, N.J.). Clinical isolates tested were obtained from various geographically diverse hospitals in the US and abroad (Focus Diagnostics, Herndon, Va. and JMI, North Liberty, Iowa). Quality control strains were from the American Type Culture Collection (ATCC; Rockville, Md.). Additional primary panel strains were generated using standard molecular biology techniques.
(§2) Minimum Inhibitory Concentrations (MICs) were determined by the broth microdilution method in accordance with the Clinical and Laboratory Standards Institute (CLSI) guidelines. In brief, organism suspensions were adjusted to a 0.5 McFarland standard to yield a final inoculum between 3×10^5 and 7×10^5 colony-forming units (CFU)/mL. Drug dilutions and inocula were made in sterile, cation adjusted Mueller-Hinton Broth (Beckton Dickinson). An inoculum volume of 100 μL was added to wells containing 100 μL of broth with 2-fold serial dilutions of drug. All inoculated microdilution trays were incubated in ambient air at 35° C. for 18-24 hours. […] Performance of the assay was monitored by the use of laboratory quality-control strains and levofloxacin, a compound with a defined MIC spectrum, in accordance with CLSI guidelines.
(§3) *AECO001 is ATCC25922, AECO063 is ATCC25922 bearing an acrAB mutation, APAE001 is ATCC27853, APAE006 is a strain of P. aeruginosa in which all efflux pumps are inactivated, APAE006+PMBN indicates MICs with the indicated strain in the presence of 8 micrograms per milliliter of polymyxin B nonapeptide, AABA1060 is a clinical isolate of Acinetobacter baumannii, ASAU001 is a laboratory strain of S. aureus (ATCC29213).

[2] = test system: APAE006 in the presence of 8 micrograms per milliliter of polymyxin B nonapeptide; format: cell-based, P. aeruginosa; conditions: APAE006 with 8 micrograms per milliliter polymyxin B nonapeptide
Procedure: as §1, §2, §3

AECO001 (ATCC25922) = assay: MIC broth microdilution, AECO001; format: cell-based, E. coli; conditions: Escherichia coli
Procedure: as §1, §2, §3

[3] = test system: ASAU001 (laboratory strain of S. aureus, ATCC29213); assay: MIC broth microdilution, ASAU001; format: cell-based; conditions: Staphylococcus aureus, ATCC29213, read-out: MIC ASAU001
Procedure: as §1, §2, §3

[4] = test system: APAE006 (strain of P. aeruginosa in which all efflux pumps are inactivated); assay: microbe, parasite or virus in culture; format: cell-based; conditions: Pseudomonas aeruginosa
Procedure: as §1, §2, §3

[5] = test system: AECO063 (ATCC25922 bearing an acrAB mutation); assay: microbe, parasite or virus in culture; format: cell-based, E. coli; conditions: Escherichia coli, ATCC25922, read-out: MIC AECO063
Procedure: as §1, §2, §3

APAE001 (ATCC27853) = assay: MIC broth microdilution, APAE001; format: cell-based, P. aeruginosa; conditions: Pseudomonas aeruginosa
Procedure: as §1, §2, §3

[6] = ATCC25922, read-out: MIC AECO001
[7] = ATCC25922, read-out: MIC AECO001 HSA AGP
[8] = read-out: MIC APAE006, APAE006, all efflux pumps inactivated
[9] = ATCC27853, read-out: MIC APAE001, APAE001 (ATCC27853)
[10] = read-out: MIC APAE006, P. aeruginosa, all efflux pumps inactivated
[11] = ATCC27853, read-out: MIC APAE001, APAE001 is ATCC27853

SMILES	MIC [1]	MIC APAE006 + PMBN [2]	MIC (AECO001 (ATCC25922); [6])	MIC (AECO001 (ATCC25922); [7])	MIC [3]	MIC [4, 8]	MIC [5]	MIC (APAE001 (ATCC27853); [9])	MIC [4, 10]	MIC (APAE001 (ATCC27853); [11])
CC(C)(N)[C@@H](NC(=O)c1ccc(C#Cc2ccc(CNC3CC3)cc2)cc1)C(=O)NO [Compound 121-2]	16 to 64 µg/mL (≈ 38 to 152 µM)	A (MIC's of 2.0 μg/mL or less = A)	2 to 16 µg/mL (≈ 4.76 to 38 µM)	16 to 64 µg/mL (≈ 38 to 152 µM)	16 to 64 µg/mL (≈ 38 to 152 µM)	< 2 µg/mL	2 to 16 µg/mL (≈ 4.76 to 38 µM)	16 to 64 µg/mL (≈ 38 to 152 µM)	–	–
CCOCc1ccc(C#Cc2ccc(C(=O)NC(C(=O)NO)C(C)(C)N)cc2)cc1 (centres unmarked) [Compound 126-2]	< 2 µg/mL	A (MIC's of 2.0 μg/mL or less = A)	< 2 µg/mL	< 2 µg/mL	16 to 64 µg/mL (≈ 39.1 to 156 µM)	< 2 µg/mL	< 2 µg/mL	2 to 16 µg/mL (≈ 4.88 to 39.1 µM)	–	–
O=C(NO)[C@@H](Cc1ccccc1)NS(=O)(=O)c1ccc(C#Cc2ccc(CN3CCOCC3)cc2)cc1 [Example 62-4, (R)—N-Hydroxy-2-[4-(4-morpholin-4-ylmethyl-phenylethynyl)-benzenesulfonylamino]-3-phenyl-propionamide]	–	–	2 to 16 µg/mL (≈ 3.85 to 30.8 µM)	–	> 64 µg/mL	–	–	–	2 to 16 µg/mL (≈ 3.85 to 30.8 µM)	> 64 µg/mL
O=C(NO)[C@H](COCc1ccccc1)NS(=O)(=O)c1ccc(C#Cc2ccc(CN3CCOCC3)cc2)cc1 [Example 62-5]	–	–	2 to 16 µg/mL (≈ 3.64 to 29.1 µM)	–	> 64 µg/mL	–	–	–	16 to 64 µg/mL (≈ 29.1 to 116 µM)	> 64 µg/mL
O=C(NO)[C@H](Cc1ccccc1)NS(=O)(=O)c1ccc(C#Cc2ccc(CN3CCOCC3)cc2)cc1 [Example 62-6]	–	–	16 to 64 µg/mL (≈ 30.8 to 123 µM)	–	> 64 µg/mL	–	–	–	2 to 16 µg/mL (≈ 3.85 to 30.8 µM)	> 64 µg/mL
O=C(NO)C1(NS(=O)(=O)c2ccc(C#Cc3ccc(CN4CCOCC4)cc3)cc2)CCCC1 [Example 62-8]	–	–	16 to 64 µg/mL (≈ 33.1 to 132 µM)	–	> 64 µg/mL	–	–	–	16 to 64 µg/mL (≈ 33.1 to 132 µM)	> 64 µg/mL
CSC[C@H](NS(=O)(=O)c1ccc(C#Cc2ccc(CN3CCOCC3)cc2)cc1)C(=O)NO [Example 62-9]	–	–	16 to 64 µg/mL (≈ 32.7 to 131 µM)	–	> 64 µg/mL	–	–	–	2 to 16 µg/mL (≈ 4.08 to 32.7 µM)	> 64 µg/mL
O=C(NO)[C@@H]1CCCN1S(=O)(=O)c1ccc(C#Cc2ccc(CN3CCOCC3)cc2)cc1 [Example 62-10]	–	–	2 to 16 µg/mL (≈ 4.26 to 34.1 µM)	–	> 64 µg/mL	–	–	–	< 2 µg/mL	> 64 µg/mL
O=C(NO)[C@@H]1CCN1S(=O)(=O)c1ccc(C#Cc2ccc(CN3CCOCC3)cc2)cc1 [Example 62-11]	–	–	2 to 16 µg/mL (≈ 4.39 to 35.1 µM)	–	> 64 µg/mL	–	–	–	< 2 µg/mL	> 64 µg/mL
COc1ccc(C#CC#Cc2ccc(C(=O)N[C@H](C(=O)NO)[C@@H](C)N)cc2)cc1 [Example 82-1, N-((1S,2R)-2-Amino-1-hydroxycarbamoyl-propyl)-4-[4-(4-methoxy-phenyl)-buta-1,3-diynyl]-benzamide]	2 to 16 µg/mL (≈ 5.11 to 40.9 µM)	A (MIC's of 2.0 μg/mL or less = A)	< 2 µg/mL	2 to 16 µg/mL (≈ 5.11 to 40.9 µM)	16 to 64 µg/mL (≈ 40.9 to 164 µM)	< 2 µg/mL	< 2 µg/mL	2 to 16 µg/mL (≈ 5.11 to 40.9 µM)	–	–
CC(C)(O)[C@H](NC(=O)c1ccc(C#CC#Cc2ccc(N)cc2)cc1)C(=O)NO [Example 82-17]	< 2 µg/mL	A (MIC's of 2.0 μg/mL or less = A)	< 2 µg/mL	< 2 µg/mL	2 to 16 µg/mL (≈ 5.11 to 40.9 µM)	< 2 µg/mL	< 2 µg/mL	< 2 µg/mL	–	–
C[C@@H](O)[C@H](NC(=O)c1ccc(C#CC#Cc2cccc(F)c2)cc1)C(=O)NO [Example 82-18]	16 to 64 µg/mL (≈ 42.1 to 168 µM)	A (MIC's of 2.0 μg/mL or less = A)	< 2 µg/mL	2 to 16 µg/mL (≈ 5.26 to 42.1 µM)	16 to 64 µg/mL (≈ 42.1 to 168 µM)	< 2 µg/mL	< 2 µg/mL	2 to 16 µg/mL (≈ 5.26 to 42.1 µM)	–	–
